Here are results for 35 compounds from ChEMBL document CHEMBL1157205, “Design, synthesis, and biological evaluation of glycine-based molecular tongs as inhibitors of Abeta1-40 aggregation in vitro” (Bioorg Med Chem, 2008).

Each structure is given as a SMILES string.

The first assay is described as follows: Inhibition of amyloid beta (1 to 40) aggregation assessed as emission of thioflavin T fluorescence at 100 uM in presence of 1,1,1,3,3,3-hexaflouro-2-propanol.
With `O=C(Nc1ccc(Oc2cccc(NC(=O)c3cc(O)c(O)c(O)c3)c2)cc1)c1cc(O)c(O)c(O)c1`, the inhibition was found to be 70%.

In the case of `O=C(CNC(=O)c1cc(O)c(O)c(O)c1)NCc1cccc(CNC(=O)CNC(=O)c2cc(O)c(O)c(O)c2)c1`, the inhibition amounted to 39%.

On to `O=C(CNC(=O)c1ccccc1)Nc1ccc(Oc2cccc(NC(=O)CNC(=O)c3ccccc3)c2)cc1`, for which the inhibition came to 7%.

Turning to `COc1cc(C(=O)NCC(=O)Nc2ccc(Oc3cccc(NC(=O)CNC(=O)c4cc(OC)c(OC)c(OC)c4)c3)cc2)cc(OC)c1OC`, the inhibition was determined as 9%.

As to `COc1cc(C(=O)NCC(=O)NCC(=O)NCC(=O)Nc2ccc(Oc3cccc(NC(=O)CNC(=O)CNC(=O)CNC(=O)c4cc(OC)c(OC)c(OC)c4)c3)cc2)cc(OC)c1OC`, the inhibition turned out to be 20%.

For the compound `O=C(CNC(=O)c1cc([N+](=O)[O-])cc([N+](=O)[O-])c1)Nc1ccc(Oc2cccc(NC(=O)CNC(=O)c3cc([N+](=O)[O-])cc([N+](=O)[O-])c3)c2)cc1`, the inhibition was found to be 44%.

In the case of `O=C(CNC(=O)c1cc(O)c(O)c(O)c1)Nc1ccc(Oc2cccc(NC(=O)CNC(=O)c3cc(O)c(O)c(O)c3)c2)cc1`, the inhibition amounted to 79%.

For the compound `O=C(NCc1cccc(CNC(=O)c2cc(O)c(O)c(O)c2)c1)c1cc(O)c(O)c(O)c1`, the inhibition turned out to be 61%.

As to `COc1cc(C(=O)NCC(=O)NCC(=O)NCC(=O)NCc2cccc(CNC(=O)CNC(=O)CNC(=O)CNC(=O)c3cc(OC)c(OC)c(OC)c3)c2)cc(OC)c1OC`, the inhibition amounted to 15%.

Turning to `O=C(CNC(=O)CNC(=O)c1cc([N+](=O)[O-])cc([N+](=O)[O-])c1)NCCCNCCCNC(=O)CNC(=O)CNC(=O)c1cc([N+](=O)[O-])cc([N+](=O)[O-])c1`, the inhibition is 9%.

In the case of `O=C(CNC(=O)c1ccccc1)NCC(=O)Nc1ccc(Oc2cccc(NC(=O)CNC(=O)CNC(=O)c3ccccc3)c2)cc1`, the inhibition is -3%.

Consider `O=C(CNC(=O)c1cc([N+](=O)[O-])cc([N+](=O)[O-])c1)NCC(=O)Nc1ccc(Oc2cccc(NC(=O)CNC(=O)CNC(=O)c3cc([N+](=O)[O-])cc([N+](=O)[O-])c3)c2)cc1`, for which the inhibition stood at 30%.

As for `COc1cc(C(=O)NCC(=O)NCC(=O)NCc2cccc(CNC(=O)CNC(=O)CNC(=O)c3cc(OC)c(OC)c(OC)c3)c2)cc(OC)c1OC`, the inhibition stood at 31%.

With `COc1cc(C(=O)NCC(=O)NCc2cccc(CNC(=O)CNC(=O)c3cc(OC)c(OC)c(OC)c3)c2)cc(OC)c1OC`, the inhibition amounted to 28%.

Regarding `O=C(CNC(=O)CNC(=O)c1ccccc1)NCC(=O)NCc1cccc(CNC(=O)CNC(=O)CNC(=O)CNC(=O)c2ccccc2)c1`, the inhibition came to 19%.

Regarding `O=C(CNC(=O)CNC(=O)c1cc(O)c(O)c(O)c1)NCC(=O)NCc1cccc(CNC(=O)CNC(=O)CNC(=O)CNC(=O)c2cc(O)c(O)c(O)c2)c1`, the inhibition stood at 4%.

With `O=C(CNC(=O)CNC(=O)c1cc([N+](=O)[O-])cc([N+](=O)[O-])c1)NCc1cccc(CNC(=O)CNC(=O)CNC(=O)c2cc([N+](=O)[O-])cc([N+](=O)[O-])c2)c1`, the inhibition is 23%.

In the case of `O=C(CNC(=O)CNC(=O)c1cc([N+](=O)[O-])cc([N+](=O)[O-])c1)NCC(=O)NCc1cccc(CNC(=O)CNC(=O)CNC(=O)CNC(=O)c2cc([N+](=O)[O-])cc([N+](=O)[O-])c2)c1`, the inhibition turned out to be 13%.

As for `O=C(CNC(=O)CNC(=O)c1ccccc1)NCC(=O)Nc1ccc(Oc2cccc(NC(=O)CNC(=O)CNC(=O)CNC(=O)c3ccccc3)c2)cc1`, the inhibition is -3%.

For the compound `O=C(CNC(=O)CNC(=O)c1cc(O)c(O)c(O)c1)NCc1cccc(CNC(=O)CNC(=O)CNC(=O)c2cc(O)c(O)c(O)c2)c1`, the inhibition amounted to 5%.

As for `O=C(CNC(=O)CNC(=O)c1ccccc1)NCc1cccc(CNC(=O)CNC(=O)CNC(=O)c2ccccc2)c1`, the inhibition came to 10%.

Take `O=C(O)CNC(=O)CNC(=O)CNC(=O)c1cc([N+](=O)[O-])cc([N+](=O)[O-])c1`: the inhibition was 36%.

`O=C(CNC(=O)c1cc(O)c(O)c(O)c1)NCC(=O)Nc1ccc(Oc2cccc(NC(=O)CNC(=O)CNC(=O)c3cc(O)c(O)c(O)c3)c2)cc1`: the inhibition stood at 80%.

Regarding `O=C(NCc1cccc(CNC(=O)c2ccccc2)c1)c1ccccc1`, the inhibition was 3%.

In the case of `COc1cc(C(=O)NCCCCC(=O)Nc2ccc(Oc3cccc(NC(=O)CCCCNC(=O)c4cc(OC)c(OC)c(OC)c4)c3)cc2)cc(OC)c1OC`, the inhibition was determined as 0%.

Consider `O=C(CNC(=O)c1ccccc1)NCc1cccc(CNC(=O)CNC(=O)c2ccccc2)c1`, for which the inhibition stood at 9%.

`O=C(CNC(=O)c1cc([N+](=O)[O-])cc([N+](=O)[O-])c1)NCc1cccc(CNC(=O)CNC(=O)c2cc([N+](=O)[O-])cc([N+](=O)[O-])c2)c1`: the inhibition was found to be 33%.

On to `O=C(CNC(=O)CNC(=O)c1cc([N+](=O)[O-])cc([N+](=O)[O-])c1)NCC(=O)Nc1ccc(Oc2cccc(NC(=O)CNC(=O)CNC(=O)CNC(=O)c3cc([N+](=O)[O-])cc([N+](=O)[O-])c3)c2)cc1`, for which the inhibition came out at 4%.

`O=C(CNC(=O)C1CCCCC1)NCC(=O)Nc1ccc(Oc2cccc(NC(=O)CNC(=O)CNC(=O)C3CCCCC3)c2)cc1`: the inhibition was found to be 17%.

Take `COc1cc(C(=O)NCc2cccc(CNC(=O)c3cc(OC)c(OC)c(OC)c3)c2)cc(OC)c1OC`: the inhibition worked out at 19%.

For the compound `COc1cc(C(=O)NCC(=O)NCC(=O)NCC(=O)O)cc(OC)c1OC`, the inhibition amounted to 11%.

Regarding `O=C(NCc1cccc(CNC(=O)c2cc([N+](=O)[O-])cc([N+](=O)[O-])c2)c1)c1cc([N+](=O)[O-])cc([N+](=O)[O-])c1`, the inhibition stood at 4%.

Regarding `COc1cc(C(=O)NCC(=O)NCC(=O)Nc2ccc(Oc3cccc(NC(=O)CNC(=O)CNC(=O)c4cc(OC)c(OC)c(OC)c4)c3)cc2)cc(OC)c1OC`, the inhibition was found to be 40%.

Turning to `Nc1cccc(Oc2ccc(NC(=O)CNC(=O)CNC(=O)c3cc([N+](=O)[O-])cc([N+](=O)[O-])c3)cc2)c1`, the inhibition worked out at 0%.

A short description of another assay: Inhibition of amyloid beta (1 to 40) aggregation assessed as emission of thioflavin T fluorescence in presence of 1,1,1,3,3,3-hexaflouro-2-propanol.
Regarding `O=C(Nc1ccc(Oc2cccc(NC(=O)c3cc(O)c(O)c(O)c3)c2)cc1)c1cc(O)c(O)c(O)c1`, the half-inhibitory concentration (IC50) was found to be 12 µM.

Turning to `O=C(CNC(=O)c1cc(O)c(O)c(O)c1)Nc1ccc(Oc2cccc(NC(=O)CNC(=O)c3cc(O)c(O)c(O)c3)c2)cc1`, the IC50 is 1.5 µM.

Consider `O=c1c(O)c(-c2ccc(O)c(O)c2)oc2cc(O)cc(O)c12` [QUERCETIN], for which the IC50 is 0.8 µM.

Take `O=C(CNC(=O)c1cc(O)c(O)c(O)c1)NCC(=O)Nc1ccc(Oc2cccc(NC(=O)CNC(=O)CNC(=O)c3cc(O)c(O)c(O)c3)c2)cc1`: the 50% inhibitory concentration (IC50) came out at 28 µM.

As a reminder, the inhibition is the drop in the measured response relative to a control, in per cent. The IC50 is the concentration at which inhibition is half-maximal.
